Laboratory results published in BindingDB's records for patent US20260049084 (Gossamer Bio Services, 2026).

Assays:
Carbonic anhydrase 1 = Carbonic anhydrase 1 (Homo sapiens, UniProt P00915); experiment: Carbonic Anhydrase 1 Enzymatic Assay
Protocol: (§1) Test compound and/or vehicle was preincubated with carbonic anhydrase I enzyme (15 μg/ml) isolated from human erythrocyte in reaction buffer (50 mM MOPS solution pH 7.5) for 15 minutes at 25° C. The reaction was initiated by addition of 500 μM 4-nitrophenyl acetate and incubated for 30 minutes. The plate was read on a spectrophotometer (Absorbance: 400 nm)

Carbonic anhydrase 2 = Carbonic anhydrase 2 (Homo sapiens, UniProt P00918); experiment: Carbonic Anhydrase 2 Enzymatic Assay
Protocol: as §1, with “II” for “I”, “nm).” for “nm)”

[1] = molecular target: T1, Ectonucleotide pyrophosphatase/phosphodiesterase family member 1 (Homo sapiens, UniProt P22413); experiment: ENPP1 cGAMP Biochemical Assay
T1 sequence (P22413 whole entry): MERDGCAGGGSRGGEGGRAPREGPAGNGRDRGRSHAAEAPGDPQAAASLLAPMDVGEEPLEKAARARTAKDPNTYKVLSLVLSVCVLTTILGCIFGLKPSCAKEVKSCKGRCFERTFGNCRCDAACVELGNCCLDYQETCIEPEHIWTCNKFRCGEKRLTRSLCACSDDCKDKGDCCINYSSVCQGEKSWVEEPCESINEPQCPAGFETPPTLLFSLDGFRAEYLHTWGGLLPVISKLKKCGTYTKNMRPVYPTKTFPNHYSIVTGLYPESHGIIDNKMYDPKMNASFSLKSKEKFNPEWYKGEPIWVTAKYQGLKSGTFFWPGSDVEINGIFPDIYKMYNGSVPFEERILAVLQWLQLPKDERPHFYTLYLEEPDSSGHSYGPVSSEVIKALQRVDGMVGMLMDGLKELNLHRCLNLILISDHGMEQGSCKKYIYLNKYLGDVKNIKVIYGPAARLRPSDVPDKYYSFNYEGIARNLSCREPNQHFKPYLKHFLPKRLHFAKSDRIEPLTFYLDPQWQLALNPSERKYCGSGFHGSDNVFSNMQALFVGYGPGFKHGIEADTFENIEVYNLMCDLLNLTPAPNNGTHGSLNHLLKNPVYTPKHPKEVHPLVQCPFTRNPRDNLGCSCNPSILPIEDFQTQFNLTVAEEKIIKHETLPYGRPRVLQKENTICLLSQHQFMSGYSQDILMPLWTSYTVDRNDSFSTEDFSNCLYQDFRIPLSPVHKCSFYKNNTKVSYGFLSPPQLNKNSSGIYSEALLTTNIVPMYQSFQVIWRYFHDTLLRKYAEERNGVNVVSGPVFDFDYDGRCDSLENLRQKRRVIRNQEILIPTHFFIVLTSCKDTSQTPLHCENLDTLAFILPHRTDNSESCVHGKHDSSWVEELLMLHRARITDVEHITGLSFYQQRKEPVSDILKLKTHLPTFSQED
Protocol: Compounds were added to 384 well Proxiplate (PerkinElmer, Waltham MA) at 100 nl/well from DMSO stocks using Echo (Labcyte, San Jose CA). Recombinant human ENPP1 protein (R&D Systems, Minneapolis MN) was prepared in assay buffer (50 mM Tris pH7.5, 1 mM TCEP pH7.0, 2 mM MgCl2 and 0.005% Tween20) and added at 10 μl/well. The plate was sealed, centrifuged at 1000 rpm for 1 minute and incubated at room temperature for 30 minutes before 5 μl substrate 2′3′-cGAMP (R&D Systems, Minneapolis MN) in assay buffer was added to each well to a final concentration of 0.5 nM ENPP1 and 1000 nM 2′3′-cGAMP. The plate was sealed and centrifuged at 1000 rpm for 1 minute again. After incubation at 25° C. for 60 minutes, Terbium labelled AMP/GMP antibody and AMP/GMP HiLyte647 Tracer (BellBrook Labs, Fitchburg WI) in detection buffer (50 mM Tris pH7.5, 20 mM EDTA and 0.1% Prionex) were added to the reaction mixture to a final concentration of 2 nM (5 μl/well). The assay plate was incubated at room temperature for 120 minutes. TR-FRET signal was detected using Envision (PerkinElmer, Waltham MA).

[2] = molecular target: T2, Ectonucleotide pyrophosphatase/phosphodiesterase family member 3 (Homo sapiens, UniProt O14638); experiment: ENPP3 cGAMP Biochemical Assay
T2 sequence (O14638 whole entry): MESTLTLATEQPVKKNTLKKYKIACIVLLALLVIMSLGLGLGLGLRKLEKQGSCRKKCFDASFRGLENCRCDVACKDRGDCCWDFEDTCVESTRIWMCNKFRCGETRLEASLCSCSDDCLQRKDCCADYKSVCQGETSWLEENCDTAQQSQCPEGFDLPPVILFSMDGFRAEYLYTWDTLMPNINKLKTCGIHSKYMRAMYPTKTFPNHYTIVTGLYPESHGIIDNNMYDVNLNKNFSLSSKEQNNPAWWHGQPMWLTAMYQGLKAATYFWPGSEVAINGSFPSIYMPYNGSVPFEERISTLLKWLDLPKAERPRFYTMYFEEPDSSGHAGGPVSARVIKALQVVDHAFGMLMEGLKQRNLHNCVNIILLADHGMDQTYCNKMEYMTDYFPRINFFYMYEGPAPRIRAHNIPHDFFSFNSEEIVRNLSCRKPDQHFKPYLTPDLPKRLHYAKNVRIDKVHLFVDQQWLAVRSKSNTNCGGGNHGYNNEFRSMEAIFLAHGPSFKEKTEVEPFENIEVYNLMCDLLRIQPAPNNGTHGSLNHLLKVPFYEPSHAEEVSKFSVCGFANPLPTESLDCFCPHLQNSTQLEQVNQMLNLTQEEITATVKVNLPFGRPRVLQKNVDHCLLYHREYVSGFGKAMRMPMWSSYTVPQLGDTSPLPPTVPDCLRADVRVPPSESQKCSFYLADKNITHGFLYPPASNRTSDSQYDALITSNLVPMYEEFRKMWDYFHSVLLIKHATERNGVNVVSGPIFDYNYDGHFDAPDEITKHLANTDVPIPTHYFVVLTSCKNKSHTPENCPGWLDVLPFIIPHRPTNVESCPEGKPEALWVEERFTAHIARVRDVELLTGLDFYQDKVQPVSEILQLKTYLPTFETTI
Protocol: Compounds were added to 384 well Proxiplate (PerkinElmer, Waltham MA) at 100 nl/well from DMSO stocks using Echo (Labcyte, San Jose CA). Recombinant human ENPP3 protein (Acro Biosystems, Newwark DE) was prepared in assay buffer (50 mM Tris pH7.5, 1 mM TCEP pH7.0, 2 mM MgCl2, 2 mM CaCl2), 2 mM ZnCl2 and 0.005% Tween20) and added at 2 μl/well. […] The plate was sealed and centrifuged at 1000 rpm for 1 minute again. […] The assay plate was incubated at room temperature for 120 minutes. TR-FRET signal was detected using Envision (PerkinElmer, Waltham MA).

Sequence of Carbonic anhydrase 1 (P00915 whole entry): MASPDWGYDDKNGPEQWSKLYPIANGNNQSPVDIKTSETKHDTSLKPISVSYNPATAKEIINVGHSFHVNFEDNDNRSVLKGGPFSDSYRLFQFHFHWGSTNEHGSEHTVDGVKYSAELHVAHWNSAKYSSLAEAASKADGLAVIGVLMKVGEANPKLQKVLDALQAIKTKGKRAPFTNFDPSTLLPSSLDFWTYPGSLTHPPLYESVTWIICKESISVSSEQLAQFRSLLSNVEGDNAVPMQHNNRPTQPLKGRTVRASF

| SMILES | IC50 (Carbonic anhydrase 1) [µM] | IC50 (Carbonic anhydrase 2) [µM] | IC50 [1] [µM] | IC50 [2] [µM] |
| --- | --- | --- | --- | --- |
| CN=[S@](N)(=O)N1CCC(CNc2ccnc3c2c(Cl)nn3CC#N)CC1 [US20260049084, Compound 15G] | > 1 | > 1 |  |  |
| CCn1nc(Cl)c2c(NCC3CCN(S(=N)(=O)CCNC(C)=O)CC3)ccnc21 (centres undefined) [US20260049084, Compound 14K] |  |  | < 0.01 | > 1 |
